Publication PMC5400565, “Real-time near-infrared fluorescence imaging using cRGD-ZW800-1 for intraoperative visualization of multiple cancer types” (Oncotarget, 2017)

What was measured:
KV channel = assay: Off-target screening (Eurofins Cerep), KV channel; type: binding
Text: Off-target interactions are binding of tracers to other components on the cell surface than the actual target site. These non-specific interactions are often of low affinity and easily missed, but can have significant effects. We outsourced the screening for in vitro for off-target interactions of cRGD-ZW800-1 to Eurofins Cerep SA, Le bois l’Evêque, France. They assessed the percentage of inhibition of a reference compound in 44 selected targets, including G protein-coupled receptors (GPCRs), transporters, ion channels, nuclear receptors, kinases and other non-kinase enzymes. These targets were recommended by four major pharmaceutical companies. The complete list is included in Supplementary Table 1 of the Supplementary Data. Each assay was performed twice using 10 μM cRGD-ZW800-1 and a reference compound. Inhibition higher than 50% was considered to represent a significant effect of cRGD-ZW800-1. Results showing between 20% and 50% were considered weak to moderate effects, while lower than 20% was not considered significant and mostly attributable to variability of the signal around the control level.

Muscarinic M1 = target: T1, Muscarinic M1 (Homo sapiens, UniProt P11229); assay: biochemical; type: binding
T1 construct: Eurofins Cerep SA (contract screening)
T1 sequence (P11229 whole entry): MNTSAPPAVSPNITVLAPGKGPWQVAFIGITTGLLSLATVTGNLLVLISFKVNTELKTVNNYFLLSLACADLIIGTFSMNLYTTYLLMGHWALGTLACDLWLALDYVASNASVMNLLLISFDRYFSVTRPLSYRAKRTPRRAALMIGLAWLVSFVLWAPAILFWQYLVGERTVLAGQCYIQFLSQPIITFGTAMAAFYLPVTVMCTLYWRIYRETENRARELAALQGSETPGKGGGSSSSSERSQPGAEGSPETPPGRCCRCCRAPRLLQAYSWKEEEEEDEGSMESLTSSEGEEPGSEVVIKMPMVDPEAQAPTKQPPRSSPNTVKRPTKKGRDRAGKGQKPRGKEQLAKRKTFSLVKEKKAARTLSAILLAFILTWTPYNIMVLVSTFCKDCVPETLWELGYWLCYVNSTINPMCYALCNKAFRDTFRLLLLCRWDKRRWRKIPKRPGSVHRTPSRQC

Potassium Channel hERG = Potassium Channel hERG (Homo sapiens, UniProt Q12809)
MAO-A = target: T2, MAO-A (Rattus norvegicus, UniProt P21396); assay: Off-target screening (Eurofins Cerep), MAO-A; type: binding
T2 construct: Eurofins Cerep SA (contract screen)
T2 sequence (P21396 whole entry): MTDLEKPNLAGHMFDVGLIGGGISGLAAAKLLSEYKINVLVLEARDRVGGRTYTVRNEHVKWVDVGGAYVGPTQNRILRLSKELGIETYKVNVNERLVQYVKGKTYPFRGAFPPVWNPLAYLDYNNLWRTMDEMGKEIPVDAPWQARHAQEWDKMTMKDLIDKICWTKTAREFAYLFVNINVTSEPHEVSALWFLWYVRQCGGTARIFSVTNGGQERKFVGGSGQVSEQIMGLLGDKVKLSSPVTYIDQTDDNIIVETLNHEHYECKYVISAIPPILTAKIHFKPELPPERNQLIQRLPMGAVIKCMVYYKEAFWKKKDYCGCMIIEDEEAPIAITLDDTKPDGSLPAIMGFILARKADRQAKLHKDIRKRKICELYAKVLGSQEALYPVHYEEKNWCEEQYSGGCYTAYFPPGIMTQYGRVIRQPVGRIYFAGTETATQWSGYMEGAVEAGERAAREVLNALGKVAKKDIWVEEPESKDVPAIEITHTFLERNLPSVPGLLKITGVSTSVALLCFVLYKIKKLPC

MCF-7 breast tumors = assay: NIR fluorescence imaging, MCF-7 breast tumors; type: in vivo, mice; details: 10 nmol, Pearl
Experimental: To induce subcutaneous tumors, colorectal cancer cells (HT-29) were injected at 4 sites on the back (500,000 cells per spot). Subsequently, these colorectal tumor cells were transplanted on the colon of other mice, as described by Tseng et al.. Approximately 500,000 pancreatic tumor cells (BxPC-3) were injected into the pancreas, as previously described by Kim et al.. Approximately 40,000 oral tumor cells (OSC-19) were injected in the tongue, as previously described by van Driel et al.. Approximately 500,000 breast tumor cells (MCF-7) were injected in both sides of the mammary fat pad to induce breast cancer tumors.
(§1) All animals were imaged using a Pearl® imager (LI-COR, Lincoln, NE) and an original FLARE® prototype. Animals with HT-29 tumors were imaged at 4 and 24 h post injection; animals with BxPC-3 and OSC-19 tumors at 4 h only. Animals with MCF-7 tumors were imaged at 0.5, 1, 2, 4, 6, 8, 24 and 48 h post injection. The specific and control images were normalized and regions of interest (ROIs) were selected using associated software. TBRs were calculated by dividing the tumor signal by the background signal. Based on our experience a TBR ≥ 2 is sufficient to discriminate between tumor and surrounding tissue.
Mice bearing orthotopic OSC-19 tumors (n = 2) were administrated with 10 nmol cRGD-ZW800-1 and imaged at 4 h. Mice bearing orthotopic MCF-7 tumors (n = 2) were injected with 10 nmol cRGD-ZW800-1 and imaged at 0.5, 1, 2, 4, 6, 8, 24, and 48 h post injection. One mouse with 2 MCF-7 tumors was administered with 10 nmol cRGD-ZW800-1 and imaged at 4 h post injection while its skin was partially removed. In vivo TBRs were calculated by dividing the mean fluorescence signals of tumors by the mean of surrounding tissue. Ex vivo organ-to-tumor ratios were calculated by dividing the fluorescence intensity of the organ by that of the tumor.

Histamine H2 = target: T3, Histamine H2 (Homo sapiens, UniProt P25021); assay: Off-target screening (Eurofins Cerep), H2; type: binding
T3 construct: Eurofins Cerep SA (contract screening)
T3 sequence (P25021 whole entry): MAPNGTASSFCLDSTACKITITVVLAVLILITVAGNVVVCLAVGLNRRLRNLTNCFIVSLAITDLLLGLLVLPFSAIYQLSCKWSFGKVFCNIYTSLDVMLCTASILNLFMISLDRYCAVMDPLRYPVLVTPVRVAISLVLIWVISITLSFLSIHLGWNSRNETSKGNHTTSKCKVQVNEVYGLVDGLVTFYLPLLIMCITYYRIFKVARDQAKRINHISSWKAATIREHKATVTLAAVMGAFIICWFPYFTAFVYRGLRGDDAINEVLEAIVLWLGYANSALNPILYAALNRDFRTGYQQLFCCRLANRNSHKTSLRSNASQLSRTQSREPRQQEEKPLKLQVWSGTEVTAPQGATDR

Glutamate channels NMDA = Glutamate channels NMDA (Rattus norvegicus, UniProt Q00959); assay: Off-target screening (Eurofins Cerep), NMDA; type: binding
Chain of Glutamate channels NMDA (Q00959 23-1464, other chains not shown): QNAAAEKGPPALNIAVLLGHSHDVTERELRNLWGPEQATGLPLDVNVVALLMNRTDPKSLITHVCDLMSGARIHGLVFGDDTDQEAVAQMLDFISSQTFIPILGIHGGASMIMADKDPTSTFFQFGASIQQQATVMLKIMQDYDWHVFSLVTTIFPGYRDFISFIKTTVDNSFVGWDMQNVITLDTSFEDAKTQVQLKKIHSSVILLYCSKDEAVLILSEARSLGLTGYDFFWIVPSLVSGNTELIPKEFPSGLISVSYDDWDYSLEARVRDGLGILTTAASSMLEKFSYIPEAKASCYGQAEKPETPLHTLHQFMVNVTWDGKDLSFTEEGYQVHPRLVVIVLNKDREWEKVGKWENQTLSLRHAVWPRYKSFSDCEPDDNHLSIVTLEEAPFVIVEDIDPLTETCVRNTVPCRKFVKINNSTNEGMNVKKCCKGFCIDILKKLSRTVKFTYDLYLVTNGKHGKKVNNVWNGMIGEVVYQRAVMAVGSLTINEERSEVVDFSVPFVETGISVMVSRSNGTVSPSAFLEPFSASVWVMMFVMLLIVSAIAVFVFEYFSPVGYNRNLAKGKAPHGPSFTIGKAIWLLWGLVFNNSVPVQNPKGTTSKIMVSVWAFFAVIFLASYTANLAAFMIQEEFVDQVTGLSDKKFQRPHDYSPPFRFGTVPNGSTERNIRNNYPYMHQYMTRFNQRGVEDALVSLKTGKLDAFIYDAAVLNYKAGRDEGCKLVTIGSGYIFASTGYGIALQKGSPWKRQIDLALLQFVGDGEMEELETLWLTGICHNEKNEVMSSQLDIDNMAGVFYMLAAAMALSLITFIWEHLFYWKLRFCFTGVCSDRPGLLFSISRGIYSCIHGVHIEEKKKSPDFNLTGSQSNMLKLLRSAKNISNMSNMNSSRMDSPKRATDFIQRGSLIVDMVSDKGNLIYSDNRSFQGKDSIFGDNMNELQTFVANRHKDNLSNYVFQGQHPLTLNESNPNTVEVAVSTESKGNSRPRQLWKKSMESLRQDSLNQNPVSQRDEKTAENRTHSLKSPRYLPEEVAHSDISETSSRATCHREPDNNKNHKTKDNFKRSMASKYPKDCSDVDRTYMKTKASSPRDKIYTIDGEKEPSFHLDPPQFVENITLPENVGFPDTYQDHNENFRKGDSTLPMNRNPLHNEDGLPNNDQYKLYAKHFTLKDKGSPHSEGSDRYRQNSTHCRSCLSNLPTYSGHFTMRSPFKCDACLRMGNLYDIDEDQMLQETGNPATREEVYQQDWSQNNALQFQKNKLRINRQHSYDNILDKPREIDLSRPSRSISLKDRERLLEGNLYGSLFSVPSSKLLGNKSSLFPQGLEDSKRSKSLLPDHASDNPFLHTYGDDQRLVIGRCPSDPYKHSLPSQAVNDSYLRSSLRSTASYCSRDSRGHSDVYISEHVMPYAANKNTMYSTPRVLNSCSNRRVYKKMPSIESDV

HT-29 cells = assay: Binding assay of cRGD-ZW800-1 on cells; type: cell-based, human
Cannabinoid CB1 = target: T4, Cannabinoid CB1 (Homo sapiens, UniProt P21554); assay: Off-target screening (Eurofins Cerep), CB1; type: binding
T4 construct: Eurofins Cerep SA (contract screening)
T4 sequence (P21554 whole entry): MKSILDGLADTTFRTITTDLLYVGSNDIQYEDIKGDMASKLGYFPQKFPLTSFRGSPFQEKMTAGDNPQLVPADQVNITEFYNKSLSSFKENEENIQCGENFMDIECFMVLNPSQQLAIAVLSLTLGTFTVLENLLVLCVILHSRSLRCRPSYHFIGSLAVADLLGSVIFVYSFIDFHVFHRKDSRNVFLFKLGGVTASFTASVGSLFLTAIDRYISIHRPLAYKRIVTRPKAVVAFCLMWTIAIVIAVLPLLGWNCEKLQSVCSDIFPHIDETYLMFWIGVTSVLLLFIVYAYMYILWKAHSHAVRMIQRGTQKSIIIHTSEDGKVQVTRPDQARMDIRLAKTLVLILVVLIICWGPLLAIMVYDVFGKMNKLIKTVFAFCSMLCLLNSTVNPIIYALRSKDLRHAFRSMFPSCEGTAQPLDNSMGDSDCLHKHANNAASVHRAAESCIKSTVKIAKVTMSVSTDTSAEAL

Dopamine D1 = target: T5, Dopamine D1 (Homo sapiens, UniProt P21728); assay: Off-target screening (Eurofins Cerep), D1; type: binding
T5 construct: Eurofins Cerep SA (contract screening)
T5 sequence (P21728 whole entry): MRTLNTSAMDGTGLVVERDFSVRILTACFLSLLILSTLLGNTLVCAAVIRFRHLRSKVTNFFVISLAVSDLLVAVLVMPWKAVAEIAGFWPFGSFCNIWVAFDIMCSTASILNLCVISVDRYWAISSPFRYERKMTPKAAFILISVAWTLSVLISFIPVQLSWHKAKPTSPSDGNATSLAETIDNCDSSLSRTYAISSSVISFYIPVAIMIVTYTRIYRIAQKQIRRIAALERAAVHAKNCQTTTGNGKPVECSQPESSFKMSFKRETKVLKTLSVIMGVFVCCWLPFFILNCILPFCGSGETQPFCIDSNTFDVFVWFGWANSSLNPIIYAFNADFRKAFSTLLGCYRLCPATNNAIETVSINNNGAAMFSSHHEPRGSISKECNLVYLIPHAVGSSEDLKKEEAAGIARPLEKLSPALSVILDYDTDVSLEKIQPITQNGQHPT

[1] = test system: orthotopic HT-29 colon tumors; assay: In vivo competition, orthotopic HT-29 model; parameters: species or system mice
Experimental: as §1
The binding specificity of cRGD-ZW800-1 was explored in a competition experiment using an excess of unlabeled cRGD (200-fold excess) co-injected with a standard dose of 10 nmol cRGD-ZW800-1 (n = 4). Simultaneously, mice (n = 3) were injected with 10 nmol cRGD-ZW800-1 as positive control. All mice had orthotopic HT-29 colon tumors. Images were acquired at 4 and 24 h post-injection after which animals were sacrificed and organs were resected and scanned with Pearl®.

PDE3A = target: T6, PDE3A (Homo sapiens, UniProt Q14432); assay: Off-target screening (Eurofins Cerep), PDE3A; type: biochemical
T6 construct: Eurofins Cerep SA (contract screen)
T6 sequence (Q14432 whole entry): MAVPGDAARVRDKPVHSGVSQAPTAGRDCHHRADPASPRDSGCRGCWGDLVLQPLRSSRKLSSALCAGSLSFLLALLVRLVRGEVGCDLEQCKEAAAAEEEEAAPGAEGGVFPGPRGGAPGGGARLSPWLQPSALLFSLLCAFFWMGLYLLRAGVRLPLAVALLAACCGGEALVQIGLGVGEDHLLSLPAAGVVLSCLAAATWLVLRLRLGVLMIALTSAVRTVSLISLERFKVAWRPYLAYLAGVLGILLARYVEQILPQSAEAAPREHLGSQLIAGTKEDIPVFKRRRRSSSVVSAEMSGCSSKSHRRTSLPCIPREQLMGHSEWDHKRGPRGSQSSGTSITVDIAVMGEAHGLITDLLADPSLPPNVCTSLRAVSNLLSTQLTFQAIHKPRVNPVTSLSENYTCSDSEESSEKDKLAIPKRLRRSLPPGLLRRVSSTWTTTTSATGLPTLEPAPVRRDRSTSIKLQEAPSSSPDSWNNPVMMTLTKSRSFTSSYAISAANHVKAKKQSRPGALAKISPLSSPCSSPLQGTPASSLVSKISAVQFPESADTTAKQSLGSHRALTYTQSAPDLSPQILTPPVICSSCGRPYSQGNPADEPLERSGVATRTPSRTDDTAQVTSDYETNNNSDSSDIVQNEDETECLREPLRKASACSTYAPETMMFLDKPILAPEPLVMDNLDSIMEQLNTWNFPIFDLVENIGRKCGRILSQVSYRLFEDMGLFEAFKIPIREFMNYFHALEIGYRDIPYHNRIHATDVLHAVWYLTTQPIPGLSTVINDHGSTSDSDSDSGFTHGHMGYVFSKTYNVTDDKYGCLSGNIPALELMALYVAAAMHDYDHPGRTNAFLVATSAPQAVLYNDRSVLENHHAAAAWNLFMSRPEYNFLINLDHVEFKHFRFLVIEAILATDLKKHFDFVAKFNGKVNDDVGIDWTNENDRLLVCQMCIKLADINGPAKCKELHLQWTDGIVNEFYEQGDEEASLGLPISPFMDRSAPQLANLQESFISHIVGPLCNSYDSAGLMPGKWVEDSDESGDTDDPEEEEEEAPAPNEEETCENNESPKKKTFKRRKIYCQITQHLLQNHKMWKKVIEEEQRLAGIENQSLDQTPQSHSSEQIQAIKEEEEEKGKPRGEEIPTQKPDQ

[2] = read-out: % Inhibition of Control Specific Binding
[3] = read-out: % of Control Specific Binding Mean
[4] = 10 μM, mean of 2, read-out: % of Control Specific Binding Mean

`CC1(C)C(/C=C/C2=C(Oc3ccc(CCC(=O)NCCCC[C@@H]4NC(=O)[C@@H](Cc5ccc(O)cc5)NC(=O)[C@H](CC(=O)O)NC(=O)CNC(=O)[C@H](CCCNC(=N)N)NC4=O)cc3)C(=C/C=C3/N(CCC[N+](C)(C)C)c4ccc(S(=O)(=O)O)cc4C3(C)C)/CCC2)=[N+](CCC[N+](C)(C)C)c2ccc(S(=O)(=O)O)cc21` [cRGD-ZW800-1] was tested, and the “% Inhibition of Control Specific Binding” value (KV channel; 10 μM cRGD-ZW800-1, format An, performed twice) was 2%, the “% of Control Specific Binding Mean” value (KV channel; 10 μM, mean of 2) was 98.0% and the inhibition at 10 µM (Muscarinic M1; [2]) was 5%. For the same compound, the remaining activity at 10 µM (Muscarinic M1; [3]) was 95.5%, the activity at 10 µM (Potassium Channel hERG) was 106% and the inhibition at 10 µM (MAO-A; 10 μM cRGD-ZW800-1, format An, performed twice, read-out: % Inhibition of Control Specific Binding) was 15%. The remaining activity at 10 µM (MAO-A; [4]) was 85%, the “decrease of fluorescence intensity of tumors at 4 h compared to 0.5 h post injection” value (MCF-7 breast tumors) was 61% ± 8% and the “decrease of fluorescence intensity of tumors at 24 h compared to 0.5 h post injection” value (MCF-7 breast tumors) was 77% ± 4%. The “TBR at 4 h post injection, with skin” value (MCF-7 breast tumors; single mouse with 2 tumors) was 1.5 ± 0.1, the “TBR at 4 h post injection, skin removed” value (MCF-7 breast tumors; single mouse with 2 tumors, p = 0.02) was 3.0 ± 0.3 and the inhibition at 10 µM (Histamine H2; [2]) was -4%. The remaining activity at 10 µM (Histamine H2; [3]) was 104%, the inhibition at 10 µM (Glutamate channels NMDA; [2]) was 10% and the remaining activity at 10 µM (Glutamate channels NMDA; [3]) was 90.4%. For the same compound, the “fluorescence intensity with increasing concentrations” value (HT-29 cells; 0, 125, 250, 500, 1000 nM, 1 h, Odyssey NIR scanner 800-nm channel, triplicate) was “almost linear increase”, the “fluorescence signals at 4°C compared to 37°C” value (HT-29 cells; incubated at 4°C, which prevents internalization, p < 0.0001) was “Significantly lower signals” and the inhibition at 10 µM (Cannabinoid CB1; 10 μM cRGD-ZW800-1, format H, Ag, performed twice, read-out: % Inhibition of Control Specific Binding) was -6%. It also gave a remaining activity at 10 µM (Cannabinoid CB1; [4]) of 106%, an inhibition at 10 µM (Dopamine D1; [2]) of -1% and a remaining activity at 10 µM (Dopamine D1; [3]) of 101%. For the same compound, the “TBR at 4 h, control” value ([1]; 10 nmol cRGD-ZW800-1 alone, n = 3, healthy colon as background, mean ± SD) was 3.2 ± 0.5, the “TBR at 4 h, with unlabeled cRGD” value ([1]; 10 nmol cRGD-ZW800-1 co-injected with 2.0 μmol unlabeled cRGD (200-fold), n = 4, mean ± SD) was 1.8 ± 0.4 and the inhibition at 10 µM (PDE3A; 10 μM cRGD-ZW800-1, format H, performed twice, read-out: % Inhibition of Control Specific Binding) was -12%. The remaining activity at 10 µM (PDE3A; [4]) was 112%.
